Laboratory results published in ChEMBL document CHEMBL3991601, “The target landscape of clinical kinase drugs” (Science, 2017).
Activity calls are given as the source filed them.

Assays:
[1] = target: T1, ATP-dependent RNA helicase DDX1 (Homo sapiens, UniProt Q92499)
T1 sequence (Q92499 whole entry): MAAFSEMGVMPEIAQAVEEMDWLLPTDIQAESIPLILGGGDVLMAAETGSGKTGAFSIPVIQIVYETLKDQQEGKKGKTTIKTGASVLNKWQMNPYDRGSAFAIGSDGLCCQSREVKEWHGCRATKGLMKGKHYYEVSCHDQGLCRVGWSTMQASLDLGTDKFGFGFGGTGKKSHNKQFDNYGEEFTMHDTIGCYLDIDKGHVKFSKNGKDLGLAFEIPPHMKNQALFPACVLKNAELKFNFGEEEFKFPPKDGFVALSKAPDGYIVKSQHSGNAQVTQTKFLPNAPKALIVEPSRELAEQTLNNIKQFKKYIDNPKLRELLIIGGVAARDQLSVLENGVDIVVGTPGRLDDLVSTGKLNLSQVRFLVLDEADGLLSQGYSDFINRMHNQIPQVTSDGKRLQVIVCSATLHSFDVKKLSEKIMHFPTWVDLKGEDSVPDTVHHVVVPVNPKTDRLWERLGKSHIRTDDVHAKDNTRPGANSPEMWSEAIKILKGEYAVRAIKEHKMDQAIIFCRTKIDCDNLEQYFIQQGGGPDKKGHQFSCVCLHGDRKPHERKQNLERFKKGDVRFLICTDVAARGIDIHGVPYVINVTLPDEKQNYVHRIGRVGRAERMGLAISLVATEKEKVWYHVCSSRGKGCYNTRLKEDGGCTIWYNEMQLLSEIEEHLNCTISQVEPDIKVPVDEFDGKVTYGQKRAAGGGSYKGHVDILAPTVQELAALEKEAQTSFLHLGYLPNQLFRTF

Ephrin type-A receptor 5 = Ephrin type-A receptor 5 (Homo sapiens, UniProt P54756)
[2] = target: Fibroblast growth factor receptor 1 (Homo sapiens, UniProt P11362)
[3] = target: T2, Cyclin-G-associated kinase (Homo sapiens, UniProt O14976)
T2 sequence (O14976 whole entry): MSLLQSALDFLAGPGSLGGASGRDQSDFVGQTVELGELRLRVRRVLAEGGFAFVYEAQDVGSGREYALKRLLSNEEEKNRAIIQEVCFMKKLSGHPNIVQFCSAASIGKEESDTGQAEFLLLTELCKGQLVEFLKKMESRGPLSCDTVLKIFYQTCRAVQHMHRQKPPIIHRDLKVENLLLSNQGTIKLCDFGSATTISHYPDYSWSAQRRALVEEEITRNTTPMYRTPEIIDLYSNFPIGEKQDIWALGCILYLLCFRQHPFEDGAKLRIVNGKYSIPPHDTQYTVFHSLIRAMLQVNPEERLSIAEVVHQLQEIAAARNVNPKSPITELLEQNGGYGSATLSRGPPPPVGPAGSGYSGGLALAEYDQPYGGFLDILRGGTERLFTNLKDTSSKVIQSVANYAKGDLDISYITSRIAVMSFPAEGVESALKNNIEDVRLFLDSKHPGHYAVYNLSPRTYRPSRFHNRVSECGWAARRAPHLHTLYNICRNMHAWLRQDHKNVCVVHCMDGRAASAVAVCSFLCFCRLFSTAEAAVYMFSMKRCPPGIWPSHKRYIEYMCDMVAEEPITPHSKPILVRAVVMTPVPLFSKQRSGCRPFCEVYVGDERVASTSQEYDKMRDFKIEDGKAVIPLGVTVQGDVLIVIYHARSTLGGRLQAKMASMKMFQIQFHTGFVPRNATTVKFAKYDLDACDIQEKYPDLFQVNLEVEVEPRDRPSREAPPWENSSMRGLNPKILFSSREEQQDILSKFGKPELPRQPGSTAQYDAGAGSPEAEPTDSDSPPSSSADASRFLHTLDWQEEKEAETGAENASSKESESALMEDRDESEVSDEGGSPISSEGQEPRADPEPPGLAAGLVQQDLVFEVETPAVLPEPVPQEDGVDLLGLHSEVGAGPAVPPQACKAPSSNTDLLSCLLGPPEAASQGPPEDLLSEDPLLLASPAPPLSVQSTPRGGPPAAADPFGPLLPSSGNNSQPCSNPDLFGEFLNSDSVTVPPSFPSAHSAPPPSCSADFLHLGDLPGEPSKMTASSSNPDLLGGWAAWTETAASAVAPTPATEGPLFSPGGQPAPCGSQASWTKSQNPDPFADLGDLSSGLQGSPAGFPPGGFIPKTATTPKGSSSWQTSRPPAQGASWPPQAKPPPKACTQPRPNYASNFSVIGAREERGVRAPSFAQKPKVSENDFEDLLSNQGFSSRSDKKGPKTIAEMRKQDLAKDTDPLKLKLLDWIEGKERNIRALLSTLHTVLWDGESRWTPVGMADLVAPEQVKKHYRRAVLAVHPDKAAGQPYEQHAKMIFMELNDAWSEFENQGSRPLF

[4] = target: Guanine nucleotide-binding protein G(i) subunit alpha-2 (Homo sapiens, UniProt P04899)
GTP-binding protein 4 = GTP-binding protein 4 (Homo sapiens, UniProt Q9BZE4)
[5] = target: Serine/threonine-protein kinase PAK 2 (Homo sapiens, UniProt Q13177)
[6] = target: Ribosomal protein S6 kinase alpha-1 (Homo sapiens, UniProt Q15418)
ADP/ATP translocase 2 = target: T3, ADP/ATP translocase 2 (Homo sapiens, UniProt P05141)
T3 sequence (P05141 whole entry): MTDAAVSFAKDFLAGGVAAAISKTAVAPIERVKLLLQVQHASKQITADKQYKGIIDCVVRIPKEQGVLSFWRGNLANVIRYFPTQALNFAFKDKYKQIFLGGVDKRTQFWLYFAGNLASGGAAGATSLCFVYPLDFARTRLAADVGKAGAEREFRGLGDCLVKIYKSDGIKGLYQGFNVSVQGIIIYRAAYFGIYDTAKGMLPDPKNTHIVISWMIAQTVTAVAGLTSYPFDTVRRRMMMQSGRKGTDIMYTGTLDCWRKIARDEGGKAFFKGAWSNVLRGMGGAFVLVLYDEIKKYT

[7] = target: Structural maintenance of chromosomes protein 2 (Homo sapiens, UniProt O95347)
Further: in the data inactive means no Kd found up to 30 µM.

Chain of Fibroblast growth factor receptor 1 (P11362 whole entry): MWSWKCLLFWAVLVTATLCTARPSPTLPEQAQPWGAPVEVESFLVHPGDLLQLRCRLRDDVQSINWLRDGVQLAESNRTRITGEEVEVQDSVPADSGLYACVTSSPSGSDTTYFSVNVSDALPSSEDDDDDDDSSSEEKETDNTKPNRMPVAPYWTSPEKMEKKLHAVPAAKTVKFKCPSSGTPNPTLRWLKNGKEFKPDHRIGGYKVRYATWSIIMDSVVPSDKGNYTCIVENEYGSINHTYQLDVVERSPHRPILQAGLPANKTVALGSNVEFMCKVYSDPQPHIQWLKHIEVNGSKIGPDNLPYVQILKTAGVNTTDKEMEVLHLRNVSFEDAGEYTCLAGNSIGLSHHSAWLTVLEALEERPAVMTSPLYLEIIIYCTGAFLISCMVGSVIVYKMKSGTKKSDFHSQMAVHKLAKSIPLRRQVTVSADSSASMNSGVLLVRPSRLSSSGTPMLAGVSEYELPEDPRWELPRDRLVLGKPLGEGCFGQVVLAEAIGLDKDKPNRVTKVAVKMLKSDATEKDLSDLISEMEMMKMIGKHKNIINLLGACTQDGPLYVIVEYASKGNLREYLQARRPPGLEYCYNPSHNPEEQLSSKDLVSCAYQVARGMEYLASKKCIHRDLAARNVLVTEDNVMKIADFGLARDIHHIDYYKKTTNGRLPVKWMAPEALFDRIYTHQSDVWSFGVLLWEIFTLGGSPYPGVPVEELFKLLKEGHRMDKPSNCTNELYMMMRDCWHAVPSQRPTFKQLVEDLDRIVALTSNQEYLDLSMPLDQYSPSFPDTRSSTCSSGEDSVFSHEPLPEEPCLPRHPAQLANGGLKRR
Chain of Guanine nucleotide-binding protein G(i) subunit alpha-2 (P04899 whole entry): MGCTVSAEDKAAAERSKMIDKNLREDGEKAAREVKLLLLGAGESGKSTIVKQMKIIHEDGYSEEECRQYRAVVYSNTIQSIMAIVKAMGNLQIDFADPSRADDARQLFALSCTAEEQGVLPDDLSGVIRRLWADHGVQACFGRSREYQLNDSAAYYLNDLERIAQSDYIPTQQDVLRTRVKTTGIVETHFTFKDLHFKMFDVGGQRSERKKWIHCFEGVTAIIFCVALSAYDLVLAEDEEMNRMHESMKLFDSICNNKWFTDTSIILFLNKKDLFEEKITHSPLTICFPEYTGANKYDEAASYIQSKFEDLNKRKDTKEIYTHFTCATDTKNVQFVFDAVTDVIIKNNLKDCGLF
Chain of Ribosomal protein S6 kinase alpha-1 (Q15418 whole entry): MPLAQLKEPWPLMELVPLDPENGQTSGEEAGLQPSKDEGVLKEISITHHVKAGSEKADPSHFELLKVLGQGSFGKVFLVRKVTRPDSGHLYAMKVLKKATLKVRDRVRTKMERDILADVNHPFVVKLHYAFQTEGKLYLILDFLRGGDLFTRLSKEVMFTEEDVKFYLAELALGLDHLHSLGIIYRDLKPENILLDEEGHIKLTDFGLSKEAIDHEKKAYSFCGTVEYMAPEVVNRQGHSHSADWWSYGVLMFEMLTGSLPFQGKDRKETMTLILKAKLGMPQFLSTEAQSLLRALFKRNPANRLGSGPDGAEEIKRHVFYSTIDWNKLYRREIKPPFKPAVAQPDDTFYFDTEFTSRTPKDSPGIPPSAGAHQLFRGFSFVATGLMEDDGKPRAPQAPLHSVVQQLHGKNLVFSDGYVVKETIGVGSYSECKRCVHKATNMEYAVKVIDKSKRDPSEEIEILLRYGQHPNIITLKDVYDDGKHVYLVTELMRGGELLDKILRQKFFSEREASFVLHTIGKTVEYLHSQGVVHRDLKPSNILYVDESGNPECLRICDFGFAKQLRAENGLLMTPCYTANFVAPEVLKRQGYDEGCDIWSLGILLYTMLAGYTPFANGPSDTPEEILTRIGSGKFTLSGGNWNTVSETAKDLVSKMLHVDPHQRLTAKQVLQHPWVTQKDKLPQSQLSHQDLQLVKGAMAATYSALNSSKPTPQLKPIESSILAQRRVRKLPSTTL
Chain of Serine/threonine-protein kinase PAK 2 (Q13177 whole entry): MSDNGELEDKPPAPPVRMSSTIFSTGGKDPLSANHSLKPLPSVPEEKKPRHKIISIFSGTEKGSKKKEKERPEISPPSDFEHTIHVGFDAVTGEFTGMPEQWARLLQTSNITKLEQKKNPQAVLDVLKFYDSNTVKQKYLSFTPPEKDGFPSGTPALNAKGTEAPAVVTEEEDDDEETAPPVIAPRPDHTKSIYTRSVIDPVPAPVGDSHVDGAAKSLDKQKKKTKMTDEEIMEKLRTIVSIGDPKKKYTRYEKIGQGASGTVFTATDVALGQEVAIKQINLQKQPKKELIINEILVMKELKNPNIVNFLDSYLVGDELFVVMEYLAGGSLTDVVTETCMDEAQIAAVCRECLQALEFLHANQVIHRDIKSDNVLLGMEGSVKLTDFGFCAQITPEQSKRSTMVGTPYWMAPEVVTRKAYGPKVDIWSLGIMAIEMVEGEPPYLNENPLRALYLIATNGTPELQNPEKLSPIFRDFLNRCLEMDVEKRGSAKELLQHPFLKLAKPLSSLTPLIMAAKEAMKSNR
Chain of Ephrin type-A receptor 5 (P54756 whole entry): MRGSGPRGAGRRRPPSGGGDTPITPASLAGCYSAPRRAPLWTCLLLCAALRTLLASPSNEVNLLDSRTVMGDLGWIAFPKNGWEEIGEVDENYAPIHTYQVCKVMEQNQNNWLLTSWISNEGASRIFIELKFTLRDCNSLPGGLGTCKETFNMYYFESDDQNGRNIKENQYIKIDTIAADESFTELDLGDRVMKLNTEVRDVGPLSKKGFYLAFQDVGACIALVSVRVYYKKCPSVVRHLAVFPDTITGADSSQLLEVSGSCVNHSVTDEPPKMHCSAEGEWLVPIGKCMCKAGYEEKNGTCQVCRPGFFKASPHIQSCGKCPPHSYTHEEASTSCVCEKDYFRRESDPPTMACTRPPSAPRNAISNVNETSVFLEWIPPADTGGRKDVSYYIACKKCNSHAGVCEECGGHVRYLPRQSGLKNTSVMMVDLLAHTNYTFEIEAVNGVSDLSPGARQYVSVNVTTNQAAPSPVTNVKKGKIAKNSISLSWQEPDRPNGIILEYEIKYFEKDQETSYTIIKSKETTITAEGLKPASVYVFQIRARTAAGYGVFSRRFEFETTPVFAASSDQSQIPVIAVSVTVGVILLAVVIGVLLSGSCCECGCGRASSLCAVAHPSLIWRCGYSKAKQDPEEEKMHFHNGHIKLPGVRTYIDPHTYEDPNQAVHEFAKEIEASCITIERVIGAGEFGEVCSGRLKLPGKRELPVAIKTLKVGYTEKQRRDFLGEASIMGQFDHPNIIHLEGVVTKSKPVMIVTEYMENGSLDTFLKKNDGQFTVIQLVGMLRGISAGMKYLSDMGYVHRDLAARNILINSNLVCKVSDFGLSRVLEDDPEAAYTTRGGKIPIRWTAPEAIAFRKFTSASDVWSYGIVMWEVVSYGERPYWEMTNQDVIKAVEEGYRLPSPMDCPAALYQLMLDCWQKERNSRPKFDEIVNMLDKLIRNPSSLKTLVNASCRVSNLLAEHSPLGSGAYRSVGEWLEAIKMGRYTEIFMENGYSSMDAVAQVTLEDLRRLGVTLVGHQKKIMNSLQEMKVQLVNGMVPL
Chain of Structural maintenance of chromosomes protein 2 (O95347 whole entry): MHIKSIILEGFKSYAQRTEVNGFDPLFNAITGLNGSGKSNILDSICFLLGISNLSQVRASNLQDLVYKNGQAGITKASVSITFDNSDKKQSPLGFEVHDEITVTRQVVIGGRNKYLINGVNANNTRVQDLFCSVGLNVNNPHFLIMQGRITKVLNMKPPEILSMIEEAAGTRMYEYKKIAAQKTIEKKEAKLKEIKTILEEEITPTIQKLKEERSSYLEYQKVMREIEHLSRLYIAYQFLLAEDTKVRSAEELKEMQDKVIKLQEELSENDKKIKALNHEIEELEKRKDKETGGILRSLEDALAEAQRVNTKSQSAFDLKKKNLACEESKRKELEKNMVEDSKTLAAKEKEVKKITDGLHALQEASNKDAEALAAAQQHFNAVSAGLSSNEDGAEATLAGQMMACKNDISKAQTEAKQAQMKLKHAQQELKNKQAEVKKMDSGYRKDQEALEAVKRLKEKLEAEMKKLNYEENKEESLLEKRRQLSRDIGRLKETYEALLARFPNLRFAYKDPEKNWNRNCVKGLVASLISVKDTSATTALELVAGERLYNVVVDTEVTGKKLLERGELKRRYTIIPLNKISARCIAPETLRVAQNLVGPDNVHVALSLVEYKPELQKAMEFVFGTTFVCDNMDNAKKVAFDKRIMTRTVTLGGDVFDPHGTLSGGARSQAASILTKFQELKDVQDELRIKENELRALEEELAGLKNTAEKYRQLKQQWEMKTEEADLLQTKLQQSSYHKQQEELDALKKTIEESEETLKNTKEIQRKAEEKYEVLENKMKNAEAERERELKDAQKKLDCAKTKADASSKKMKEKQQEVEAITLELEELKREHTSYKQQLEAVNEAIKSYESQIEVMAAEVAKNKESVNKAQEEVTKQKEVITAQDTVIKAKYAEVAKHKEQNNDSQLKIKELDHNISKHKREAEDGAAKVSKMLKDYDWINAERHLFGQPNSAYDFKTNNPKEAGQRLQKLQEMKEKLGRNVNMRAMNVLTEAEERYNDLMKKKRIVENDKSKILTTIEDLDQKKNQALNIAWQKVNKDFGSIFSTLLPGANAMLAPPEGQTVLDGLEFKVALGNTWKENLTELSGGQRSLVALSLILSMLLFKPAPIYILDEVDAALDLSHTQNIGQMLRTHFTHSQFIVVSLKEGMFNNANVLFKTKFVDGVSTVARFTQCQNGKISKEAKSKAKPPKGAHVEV

| Kd [1] | Kd (Ephrin type-A receptor 5) | Kd [2] | Kd [3] | Kd [4] | Kd (GTP-binding protein 4) | Kd [5] | Kd [6] | Kd (ADP/ATP translocase 2) | Kd [7] | Compound |
| --- | --- | --- | --- | --- | --- | --- | --- | --- | --- | --- |
| > 30 µM (inactive) | > 30 µM (inactive) | > 30 µM (inactive) | > 30 µM (inactive) | > 30 µM (inactive) | > 30 µM (inactive) | > 30 µM (inactive) | > 30 µM (inactive) | > 30 µM (inactive) | > 30 µM (inactive) | CC(C)(O)CC(=O)NCCn1ccc2ncnc(Nc3ccc(Oc4cccc(C(F)(F)F)c4)c(Cl)c3)c21 [TAK-285] |
| > 30 µM (inactive) | > 30 µM (inactive) | > 30 µM (inactive) | > 30 µM (inactive) | > 30 µM (inactive) | > 30 µM (inactive) | > 30 µM (inactive) | > 30 µM (inactive) | > 30 µM (inactive) | > 30 µM (inactive) | CNC(=O)c1cccc(-c2ccc3c(N4CCOC[C@@H]4C)nc(N4CCOC[C@@H]4C)nc3n2)c1 [VISTUSERTIB] |
| > 30 µM (inactive) | > 30 µM (inactive) | > 30 µM (inactive) | 0.12 µM (active) | > 30 µM (inactive) | > 30 µM (inactive) | > 30 µM (inactive) | > 30 µM (inactive) | > 30 µM (inactive) | > 30 µM (inactive) | COc1cc2ncnc3c2cc1OCCCCCN(C)Cc1ccc(Br)cc1N3 [JNJ-26483327] |
| > 30 µM (inactive) | > 30 µM (inactive) | > 30 µM (inactive) | > 30 µM (inactive) | > 30 µM (inactive) | > 30 µM (inactive) | > 30 µM (inactive) | > 30 µM (inactive) | > 30 µM (inactive) | > 30 µM (inactive) | COc1cc2nccc(Oc3ccc(NC(=O)C4(C(=O)Nc5ccc(F)cc5)CC4)cc3)c2cc1OC [CABOZANTINIB] |
| > 30 µM (inactive) | > 30 µM (inactive) | > 30 µM (inactive) | 0.0003 µM (active) | > 30 µM (inactive) | > 30 µM (inactive) | > 30 µM (inactive) | > 30 µM (inactive) | > 30 µM (inactive) | > 30 µM (inactive) | COc1cccc(Nc2ncnn3ccc(CN4CC[C@@H](N)[C@H](O)C4)c23)c1 [BMS-690514] |
| > 30 µM (inactive) | > 30 µM (inactive) | > 30 µM (inactive) | 0.156 µM (active) | > 30 µM (inactive) | > 30 µM (inactive) | > 30 µM (inactive) | > 30 µM (inactive) | > 30 µM (inactive) | > 30 µM (inactive) | O[C@H]1CC[C@H](Nc2ncc3nc(Nc4c(F)cc(F)cc4F)n([C@H]4CCOC4)c3n2)CC1 [TANZISERTIB] |
| > 30 µM (inactive) | > 30 µM (inactive) | > 30 µM (inactive) | 0.824 µM (active) | > 30 µM (inactive) | > 30 µM (inactive) | > 30 µM (inactive) | > 30 µM (inactive) | > 30 µM (inactive) | > 30 µM (inactive) | Cc1cc(-c2cc(OC(=O)c3ccccc3)ccc2Cl)cc2nnc(Nc3ccc(OCCN4CCCC4)cc3)nc12 [TG100-801] |
| > 30 µM (inactive) | > 30 µM (inactive) | > 30 µM (inactive) | > 30 µM (inactive) | > 30 µM (inactive) | > 30 µM (inactive) | > 30 µM (inactive) | > 30 µM (inactive) | > 30 µM (inactive) | > 30 µM (inactive) | COc1cccc2cc(-c3nc([C@H]4CC[C@H](C(=O)O)CC4)n4ncnc(N)c34)[nH]c12 [OSI-027] |
| > 30 µM (inactive) | > 30 µM (inactive) | > 30 µM (inactive) | > 30 µM (inactive) | > 30 µM (inactive) | > 30 µM (inactive) | > 30 µM (inactive) | > 30 µM (inactive) | > 30 µM (inactive) | > 30 µM (inactive) | Cc1cc(C(=O)Nc2cc(Oc3ccc4nc(NC(=O)C5CC5)cn4n3)ccc2C)n(C)n1 [TAK-593] |
| > 30 µM (inactive) | > 30 µM (inactive) | > 30 µM (inactive) | 1.46 µM (active) | > 30 µM (inactive) | > 30 µM (inactive) | > 30 µM (inactive) | > 30 µM (inactive) | > 30 µM (inactive) | > 30 µM (inactive) | c1cc(OCCN2CCCCC2)cc(-c2n[nH]c3ccc(-c4nc[nH]n4)cc23)c1 [CC-401] |

| Compound | Kd [1] | Kd (Ephrin type-A receptor 5) | Kd [2] | Kd [3] | Kd [4] | Kd (GTP-binding protein 4) | Kd [5] | Kd [6] | Kd (ADP/ATP translocase 2) | Kd [7] |
| --- | --- | --- | --- | --- | --- | --- | --- | --- | --- | --- |
| Cn1cc(-c2[nH]c3cc(NC(=O)[C@H](N)C4CCCCC4)cc4c3c2C=NNC4=O)cn1 | > 30 µM (inactive) | > 30 µM (inactive) | 0.192 µM (active) | 0.023 µM (active) | > 30 µM (inactive) | > 30 µM (inactive) | > 30 µM (inactive) | 5.2 µM | > 30 µM (inactive) | > 30 µM (inactive) |
| C=CC(=O)Nc1cc(Nc2nccc(-c3cn(C)c4ccccc34)n2)c(OC)cc1N(C)CCN(C)C [OSIMERTINIB] | > 30 µM (inactive) | > 30 µM (inactive) | > 30 µM (inactive) | > 30 µM (inactive) | > 30 µM (inactive) | > 30 µM (inactive) | > 30 µM (inactive) | > 30 µM (inactive) | > 30 µM (inactive) | > 30 µM (inactive) |
| CN1CCN(c2nc(C3=C(c4c[nH]c5ccccc45)C(=O)NC3=O)c3ccccc3n2)CC1 [SOTRASTAURIN] | > 30 µM (inactive) | > 30 µM (inactive) | > 30 µM (inactive) | > 30 µM (inactive) | > 30 µM (inactive) | 8.2 µM | > 30 µM (inactive) | > 30 µM (inactive) | > 30 µM (inactive) | > 30 µM (inactive) |
